# From article PMC8145107 (Pharmaceutics, 2021)
# What was measured:
# [1] = Liver microsomal phase I stability assay (mouse); assay type: in vitro ADME; conditions: mouse liver microsomes
# [2] = tested on: HSP27 recombinant protein; test: HSP27 cross-linking with recombinant protein (Western blot); assay type: biochemical; conditions: 10 μM, 3 h
# Protocol: For polyacrylamide gel electrophoresis (PAGE) and Western blot (WB) analysis, cells were lysed with radioimmunoprecipitation assay (RIPA) buffer (50 mM Tris-HCl [pH 7.5], 150 mM NaCl, 1% NP-40, 0.1% sodium dodecyl sulfate (SDS), and 1% sodium deoxycholate) supplemented with 1 mM Na3VO4, 1 mM dithiothreitol (DTT), 1 mM phenyl-methyl-sulfonyl fluoride (PMSF), and protease inhibitor cocktail (Calbiochem). The samples were boiled for 5 min, and equal amounts of protein were analyzed by SDS-PAGE. […]
# Figure S3. […] (A) HSP25 WT protein was pretreated with NAC (N-acetyl-L-cysteine) at 20 mM for 30 min and then treated with J2 or NA49 at 10 μM. After 3 h, the dimerization of proteins was altered. ( B) NCI-H460 cells were tr eated with J2 or NA49 (0, 1, 5, 10 and 20 μM) for 24 h, and cell lysates were detected by Western blot analysis. […]
# NCI-H460 xenograft = test: NCI-H460 tumor xenograft in mice; assay type: in vivo, BALB/c nude mice; conditions: NA49 20 mg/kg IP every other day + cisplatin 2 mg/kg IP twice a week
# Protocol: (§1) NCI-H460 single-cell suspension (1 × 10^6 cells) was injected subcutaneously into the hind legs of 6-week-old BALB/c nude mice (Orientbio, Korea). […] NCI-H1650 single-cell suspension (1 × 10^7 cells) was injected subcutaneously into the hind leg of 6-week-old NOD-SCID mice (Koatech, Korea). When tumors reached a minimal volume of 150 mm^3, xenograft mice were treated 7 times with J2 or NA49 by local regional application with or without gefitinib (5 mg/kg) by IP injection. For this, J2 or NA49 (20 mg/kg) was injected by IP every two days, and gefitinib was injected every three days. Tumor volumes were determined according to the formula (L × l^2)/2, by measuring tumor length (L) and width (l) with a caliper. Tumors were measured every other day and allowed to grow for 15 or 34 days. All procedures for animal experiments were in accordance with the guidelines by the Ewha Woman’s University Institutional Animal Care and Use Committee (IACUC, 18-006), Seoul, Korea.
# NCI-H1975 cells [3] = test: Cell death by PI staining / flow cytometry, NCI-H1975; assay type: cell-based, human; conditions: NA 10 µM + gefitinib 10 µM, CompuSyn
# Protocol: (§2) Cells were plated in 6-well culture plates at a density of 1 × 10^5 cells/well. Compounds were applied to the cells immediately after seeding. When cells were harvested, cells were washed once with 1× phosphate-buffered saline (PBS), dissociated using Trypsin-EDTA, and centrifuged at 13,000 rpm for 3 min at 4 °C. Next, 1 mL of 1× PBS was added to wash the pellet again. Finally, 1 mL of 1× PBS and 1 μg/mL of propidium iodide (PI) were added to each polystyrene round-bottom tube. Flow cytometric analysis was performed using a FACS flow cytometer (BD Bioscience). To measure cell death, 10^4 cells were counted, and PI-stained cells were analyzed. FACS analysis in accordance with the manufacturer’s instruction. […]
# (§3) Table S1. CI values of NSCLC cell lines.
# (§4) Cell line Combination drug NA 10 µM NA 20 µM
# (§5) CI values were calculated from the data of percent inhibition of cell death by PI staining. Each CI
# (§6) value was analyzed by CompuSyn software. […]
# PC9 cells [4] = test: MTT viability assay, PC9; assay type: cell-based; conditions: Homo sapiens, PC-9, 24 h
# Protocol: (§7) The human NSCLC cell lines of NCI-H460, A549, HCC827, PC9, NCI-H1650, and NCI-H1975 were obtained from the American Type Culture Collection (Rockville, MD, USA). Cells were cultured in RPMI 1640 medium containing 10% FBS, 2 mmol/L L-glutamine, and 100 units/mL of penicillin and streptomycin and maintained at 37 °C in a humidified incubator containing 5% CO2.
# (§8) Cell viability against gefitinib-, cisplatin-, and NA49-induced toxicity was determined using an MTT (Amersham Pharmacia Biotech) assay in 96-well plates. […] Next, cells were incubated with 100 µL of 5 mg/mL 3-(4,5-dimethylthiazol-2-yl)-2,5-diphenyltetrazolium bromide (Sigma Aldrich, M5655) for 2 h. After the MTT mixture was removed, 100 µL of DMSO was added to each well, and absorbance at 540 nm was measured using an ELISA plate reader (TECAN, Twinfinite PRO).
# NCI-H460 cells [5] = test: Cell death by PI staining / flow cytometry, NCI-H460; assay type: cell-based, human; conditions: H460, PI staining, CompuSyn
# Protocol: as §2, §3, §4, §5, §6
# A549 cells [6] = test: MTT viability assay, A549; assay type: cell-based; conditions: Homo sapiens, 24 h
# HCC827 cells [7] = test: Cell death by PI staining / flow cytometry, HCC827; assay type: cell-based, human; conditions: NA 10 µM + gefitinib 0.01 µM, CompuSyn
# Protocol: as §2, §3, §4, §5, §6
# NCI-H1975 cells [8] = test: MTT viability assay, NCI-H1975; assay type: cell-based; conditions: Homo sapiens, 24 h
# Protocol: as §7, §8
# A549 cells [9] = test: Cell death by PI staining / flow cytometry, A549; assay type: cell-based, human; conditions: PI staining, CompuSyn
# Protocol: as §2, §3, §4, §5, §6
# PC9 cells [10] = test: Cell death by PI staining / flow cytometry, PC9; assay type: cell-based, human; conditions: NA 10 µM + gefitinib 0.01 µM, CompuSyn
# Protocol: as §2, §3, §4, §5, §6
# NCI-H1650 xenograft = test: NCI-H1650 tumor xenograft in mice; assay type: in vivo, NOD-SCID mice; conditions: NA49 20 mg/kg IP every other day + Gef 5 mg/kg IP
# Protocol: as §1
# NCI-H460 cells [11] = test: MTT viability assay, NCI-H460; assay type: cell-based, human; conditions: Homo sapiens, 24 h
# Protocol: as §7, §8
# HCC827 cells [12] = test: MTT viability assay, HCC827; assay type: cell-based; conditions: Homo sapiens, 24 h
# Protocol: as §7, §8
# NCI-H1650 cells [13] = test: MTT viability assay, NCI-H1650; assay type: cell-based; conditions: Homo sapiens, 24 h
# Protocol: as §7, §8
# NCI-H1650 cells [14] = test: Cell death by PI staining / flow cytometry, NCI-H1650; assay type: cell-based, human; conditions: CompuSyn
# Protocol: as §2, §3, §4, §5, §6
SMILES,In vitro Metabolic Stability (% of remaining after 30 min) [1],HSP27 cross-linking activity (altered dimerization) [2],"Tumor growth, combination with NA49 compared to cisplatin alone (NCI-H460 xenograft)",CI value (combination index) (NCI-H1975 cells [3]),IC50 (PC9 cells [4]),CI value (combination index) (NCI-H460 cells [5]; NA 10 µM + cisplatin 3 µM),CI value (combination index) (NCI-H460 cells [5]; NA 20 µM + cisplatin 3 µM),IC50 (A549 cells [6]),CI value (combination index) (HCC827 cells [7]),IC50 (NCI-H1975 cells [8]),CI value (combination index) (A549 cells [9]; NA 10 µM + cisplatin 5 µM),CI value (combination index) (A549 cells [9]; NA 20 µM + cisplatin 5 µM),CI value (combination index) (PC9 cells [10]),"Tumor growth, combination with NA49 compared to Gef alone (NCI-H1650 xenograft)",IC50 (NCI-H460 cells [11]),IC50 (HCC827 cells [12]),IC50 (NCI-H1650 cells [13]),CI value (combination index) (NCI-H1650 cells [14]; NA 10 µM + gefitinib 10 µM),CI value (combination index) (NCI-H1650 cells [14]; NA 10 µM + gefitinib 20 µM)
Cc1cc(=O)c2c(O)cc(OCC3CS3)cc2o1 (stereo not drawn) [J2],6.2 ± 2.55%,Altered dimerization of HSP27,,,,,,,,,,,,,,,,,
COc1ccc(-c2coc3cc(OCC4CS4)ccc3c2=O)c(OC)c1 (stereo not drawn) [NA49],2.4 ± 0.95%,stronger cross-linking activity than J2,greater reduction in tumor growth,0.392,73 ± 2.66 µM,0.942,0.969,62.5 ± 0.9 µM,0.651,89.4 ± 2.57 µM,0.698,0.823,1.84,greater reduction in tumor growth,38.1 ± 0.69 µM,64.4 ± 2.31 µM,62.9 ± 1.58 µM,0.828,0.487
